We go through 27 compounds from patent publication US10065972B2, “Bicyclic or tricyclic heterocyclic compound” (MITSUBISHI TANABE PHARMA CORPORATION, priority 2014, dated 2018).

pIC50: −log10 of the molar value.

Sequence of human recombinant KAT-II (Q8N5Z0 30-425): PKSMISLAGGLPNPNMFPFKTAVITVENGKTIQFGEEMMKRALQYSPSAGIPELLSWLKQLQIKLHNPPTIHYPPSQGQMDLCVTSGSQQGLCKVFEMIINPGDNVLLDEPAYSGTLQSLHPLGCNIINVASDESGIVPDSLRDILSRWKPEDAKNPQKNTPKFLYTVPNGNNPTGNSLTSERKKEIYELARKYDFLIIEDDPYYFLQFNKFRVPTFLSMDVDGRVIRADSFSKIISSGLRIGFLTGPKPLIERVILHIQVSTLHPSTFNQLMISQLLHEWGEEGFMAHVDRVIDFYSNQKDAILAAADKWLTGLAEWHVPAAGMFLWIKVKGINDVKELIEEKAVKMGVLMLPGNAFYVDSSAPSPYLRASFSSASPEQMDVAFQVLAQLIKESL

The test has as its target human recombinant KAT-II (Homo sapiens (Human), UniProt Q8N5Z0). Nature of the test: KAT-II inhibitory test. It is filed as biochemical. As to conditions: 3.0 μmol/L kynurenine, 37° C., 1 hr, pH 8.0; kynurenic acid quantified by HPLC. The protocol:
The compounds described in the above-mentioned Examples were used for the KAT-II inhibitory test.
Preparation of Human Recombinant KAT-II
Human recombinant KAT-II was prepared as follows.
His tag and maltose binding protein tag were added to the N-terminal of a gene encoding human KAT-II (Genbank accession number: AF481738.1), and the obtained gene was incorporated into pET32 (Merck Nihon Millipore), which is an Escherichia coli expression vector. Human recombinant KAT-II produced by BL21(DE3) Escherichia coli (Merck Nihon Millipore, 69450) transformed using the plasmid was purified using an amylose resin column (New England Biolabs, #800-21 L).
The inhibitory action of the test compound on human recombinant KAT-II was determined by the following method.
To a reaction mixture (45 μL) containing 3.0 μmol/L kynurenine, 10 μmol/L pyridoxal phosphate, 2.0 ng/μL human recombinant KAT-II, and 150 mmol/L tris(hydroxymethyl)aminomethane-acetate buffer (pH 8.0) was added a 10% dimethyl sulfoxide solution (5 μL) of each test compound prepared, and the mixture was reacted at 37° C. for 1 hr. After the reaction, 50% trichloroacetic acid (5 μL) was added to terminate the reaction.
The resultant kynurenic acid was quantified as follows by high performance liquid chromatography. An enzyme reaction mixture was separated by an octadecylsilane reversed-phase column (SC-50DS, Eicom Corporation; mobile phase: 250 mmol/L zinc acetate, 50 mmol/L sodium acetate, and 5.0% acetonitrile (pH 6.2)) incubated at 30° C., and kynurenic acid was quantified using a fluorescence detector (RF-20Axs, Shimadzu Corporation) at excitation wavelength 354 nm, detection wavelength 460 nm. The analytical curve was drawn every time by an external standard method. Each test compound was tested by dual measurement at each concentration.
Consider `Cc1cc(=O)n2nc(N3C[C@@H]4C[C@@H]4[C@@H]3C(=O)NCc3ccccc3)sc2n1` (racemic) [Example 661, (1SR,2RS,5RS)-N-benzyl-3-(7-methyl-5-oxo-5H-[1,3,4]thiadiazolo[3,2-a]pyrimidin-2-yl)-3-azabicyclo[3.1.0]hexane-2-carboxamide], for which the negative-log IC50 (pIC50) was 5.41. The result for `Cn1c(CN2CCOCC2)nc2sc([C@H]3CCCN3C(=O)OCc3ccccc3)nc2c1=O` [Example 8, (R)-2-{6-methyl-5-[(morpholin-4-yl)methyl]-7-oxo-6,7-dihydro[1,3]thiazolo[5,4-d]pyrimidin-2-yl}pyrrolidine-1-carboxylic acid benzyl ester] reads 6.21; that for `CCc1nc2sc([C@H]3CCCN3C(=O)NCc3ccccc3)nc2c(=O)n1C` [Example 9, (R)-N-benzyl-2-(5-ethyl-6-methyl-7-oxo-6,7-dihydro[1,3]thiazolo[5,4-d]pyrimidin-2-yl)pyrrolidine-1-carboxamide], 6.60. With `CC(C)n1c(C(F)(F)F)nc2sc([C@H]3CCCN3C(=O)NCc3ccccc3Cl)nc2c1=O` [Example 11, (R)-N-(2-chlorobenzyl)-2-[7-oxo-6-(propan-2-yl)-5-trifluoromethyl-6,7-dihydro[1,3]thiazolo[5,4-d]pyrimidin-2-yl]pyrrolidine-1-carboxamide], the negative-log IC50 (pIC50) was 5.21. As to `CCc1nc2sc([C@H]3CCCN3C(=O)NC3(c4ccccc4)CC3)nc2c(=O)n1C` [Example 12, (R)-2-(5-ethyl-6-methyl-7-oxo-6,7-dihydro[1,3]thiazolo[5,4-d]pyrimidin-2-yl)-N-(1-phenylcyclopropyl)pyrrolidine-1-carboxamide], the negative-log IC50 (pIC50) is 6.89.

For `CCc1nc2sc([C@H]3CCCN3C(=O)N[C@@H]3CCc4ccccc43)nc2c(=O)n1C` [Example 13, (R)-5-ethyl-2-{1-[((R)-indan-1-yl)aminocarbonyl]pyrrolidin-2-yl}-6-methyl-6,7-dihydro[1,3]thiazolo[5,4-d]pyrimidin-7-one], the pIC50 was 6.25. For `CCc1nc2sc([C@H]3CCCN3C(=O)CN3CCCc4ccccc43)nc2c(=O)n1C` [Example 14, (R)-2-{1-[2-(3,4-dihydro-2H-quinolin-1-yl)acetyl]pyrrolidin-2-yl}-5-ethyl-6-methyl-6H-[1,3]thiazolo[5,4-d]pyrimidin-7-one], the negative-log IC50 (pIC50) is 7.24. The same measure for `CCc1nc2sc([C@H]3CCCN3C(=O)NC(C)(C)c3ccccc3)nc2c(=O)n1C` [Example 15, (R)-2-(5-ethyl-6-methyl-7-oxo-6,7-dihydro[1,3]thiazolo[5,4-d]pyrimidin-2-yl)-N-(1-methyl-1-phenylethyl)pyrrolidine-1-carboxamide]: 5.96; for `CCc1nc2sc([C@H]3CCCN3C(=O)N[C@H](C)c3ccccc3)nc2c(=O)n1C` [Example 17, (R)-2-(5-ethyl-6-methyl-7-oxo-6,7-dihydro[1,3]thiazolo[5,4-d]pyrimidin-2-yl)-N-((R)-1-phenylethyl)pyrrolidine-1-carboxamide]: 5.80; for `Cc1noc(-c2nc3sc([C@H]4CCCN4C(=O)Oc4ccccc4)nc3c(=O)n2C)n1` [Example 19, (R)-2-[6-methyl-5-(3-methyl-[1,2,4]oxadiazol-5-yl)-7-oxo-6,7-dihydro[1,3]thiazolo[5,4-d]pyrimidin-2-yl]pyrrolidine-1-carboxylic acid phenyl ester]: 7.37. In the case of `CCc1nc2sc([C@H]3CCCN3C(=O)Oc3ccccc3)nc2c(=O)n1C` [Example 28, (R)-2-(5-ethyl-6-methyl-7-oxo-6,7-dihydro[1,3]thiazolo[5,4-d]pyrimidin-2-yl)pyrrolidine-1-carboxylic acid phenyl ester], the negative-log IC50 (pIC50) is 7.60.

For the compound `Cc1nc2sc([C@H]3CCCN3C(=O)Oc3ccccc3)nc2c(=O)n1C1CCOCC1` [Example 32, (R)-2-[5-methyl-7-oxo-6-(tetrahydro-2H-pyran-4-yl)-6,7-dihydro[1,3]thiazolo[5,4-d]pyrimidin-2-yl]pyrrolidine-1-carboxylic acid phenyl ester], the pIC50 is 6.40. The same measure for `Cc1cccc(OC(=O)N2CCC[C@@H]2c2nc3c(=O)n(C)c(C4CCOCC4)nc3s2)c1` [Example 36, (R)-2-[6-methyl-7-oxo-5-(tetrahydro-2H-pyran-4-yl)-6,7-dihydro[1,3]thiazolo[5,4-d]pyrimidin-2-yl]pyrrolidine-1-carboxylic acid 3-methylphenyl ester]: 7.74; for `CC(C)c1nc2sc([C@H]3CCCN3C(=O)Oc3ccccc3)nc2c(=O)[nH]1` [Example 63, (R)-2-[7-oxo-5-(propan-2-yl)-6,7-dihydro[1,3]thiazolo[5,4-d]pyrimidin-2-yl]pyrrolidine-1-carboxylic acid phenyl ester]: 7.82.

With `O=C(Oc1ccccc1)N1CCC[C@@H]1c1nc2c(=O)[nH]c(-c3ccccc3)nc2s1` [Example 65, (R)-2-(7-oxo-5-phenyl-6,7-dihydro[1,3]thiazolo[5,4-d]pyrimidin-2-yl)pyrrolidine-1-carboxylic acid phenyl ester], the pIC50 was 7.60.

With `O=C(Oc1ccccc1)N1CCC[C@@H]1c1nc2c(=O)[nH]c(-c3ccc(F)cc3F)nc2s1` [Example 67, (R)-2-[5-(2,4-difluorophenyl)-7-oxo-6,7-dihydro[1,3]thiazolo[5,4-d]pyrimidin-2-yl]pyrrolidine-1-carboxylic acid phenyl ester], the pIC50 is 7.85. The same measure for `Cc1ccccc1-c1nc2sc([C@H]3CCCN3C(=O)Oc3ccccc3)nc2c(=O)[nH]1` [Example 69, (R)-2-[5-(2-methylphenyl)-7-oxo-6,7-dihydro[1,3]thiazolo[5,4-d]pyrimidin-2-yl]pyrrolidine-1-carboxylic acid phenyl ester]: 7.40. The same measure for `O=C(Oc1ccccc1)N1CCC[C@@H]1c1nc2c(=O)[nH]c(C3CCC(F)(F)CC3)nc2s1` [Example 74, (R)-2-[5-(4,4-difluorocyclohexyl)-7-oxo-6,7-dihydro[1,3]thiazolo[5,4-d]pyrimidin-2-yl]pyrrolidine-1-carboxylic acid phenyl ester]: 7.08. With `O=C(Oc1ccccc1)N1CCC[C@@H]1c1nc2c(=O)[nH]c(C3(CF)CC3)nc2s1` [Example 80, (R)-2-{5-[1-(fluoromethyl)cyclopropyl]-7-oxo-6,7-dihydro[1,3]thiazolo[5,4-d]pyrimidin-2-yl}pyrrolidine-1-carboxylic acid phenyl ester], the negative-log IC50 (pIC50) was 8.07. The same measure for `C[C@H](c1nc2c(=O)[nH]c(C3(Cl)CC3)nc2s1)N(C)C(=O)Oc1ccccc1` [Example 85, N-{(R)-1-[5-(1-chlorocyclopropyl)-7-oxo-6,7-dihydro[1,3]thiazolo[5,4-d]pyrimidin-2-yl]ethyl}-N-methylcarbamic acid phenyl ester]: 6.77; for `Cc1cccc(OC(=O)N2CCC[C@@H]2c2nc3c(=O)[nH]c(C4(C#N)CC4)nc3s2)c1` [Example 94, (R)-2-[5-(1-cyanocyclopropyl)-7-oxo-6,7-dihydro[1,3]thiazolo[5,4-d]pyrimidin-2-yl]pyrrolidine-1-carboxylic acid 3-methylphenyl ester]: 8.21; for `COCC1(c2nc3sc([C@H]4CCCN4C(=O)Oc4ccccc4)nc3c(=O)[nH]2)CC1` [Example 96, (R)-2-{5-[1-(methoxymethyl)cyclopropyl]-7-oxo-6,7-dihydro[1,3]thiazolo[5,4-d]pyrimidin-2-yl}pyrrolidine-1-carboxylic acid phenyl ester]: 7.72. The same measure for `O=C(Cc1ccccc1)N1CCC[C@@H]1c1nc2c(=O)[nH]c(C3(C(F)(F)F)CC3)nc2s1` [Example 97, 2-[(R)-1-(phenylacetyl)pyrrolidin-2-yl]-5-[1-(trifluoromethyl)cyclopropyl]-6H-[1,3]thiazolo[5,4-d]pyrimidin-7-one]: 7.89. As for `Cc1cccc(CC(=O)N2CCC[C@@H]2c2nc3c(=O)[nH]c(C4(C(F)(F)F)CC4)nc3s2)c1` [Example 98, 2-{(R)-1-[2-(3-methylphenyl)acetyl]pyrrolidin-2-yl}-5-[1-(trifluoromethyl)cyclopropyl]-6H-[1,3]thiazolo[5,4-d]pyrimidin-7-one], the pIC50 was 7.43. `CC1(Oc2nc3sc([C@H]4CCCN4C(=O)Oc4ccccc4)nc3c(=O)[nH]2)CC1` [Example 104, (R)-2-[5-(1-methylcyclopropoxy)-7-oxo-6,7-dihydro[1,3]thiazolo[5,4-d]pyrimidin-2-yl]pyrrolidine-1-carboxylic acid phenyl ester]: the negative-log IC50 (pIC50) is 7.14.

Take `O=C(Oc1ccccc1)N1CCC[C@@H]1c1nc2c(=O)[nH]c(OCC(F)(F)F)nc2s1` [Example 105, (R)-2-[7-oxo-5-(2,2,2-trifluoroethoxy)-6,7-dihydro[1,3]thiazolo[5,4-d]pyrimidin-2-yl]pyrrolidine-1-carboxylic acid phenyl ester]: the negative logarithm of the IC50 (pIC50) was 7.19. Take `CN(C)c1nc2sc([C@H]3CCCN3C(=O)Oc3ccccc3)nc2c(=O)[nH]1` [Example 106, (R)-2-[5-(N,N-dimethylamino)-7-oxo-6,7-dihydro[1,3]thiazolo[5,4-d]pyrimidin-2-yl]pyrrolidine-1-carboxylic acid phenyl ester]: the pIC50 was 7.16.

Broadly, the pIC50 is −log10 of the IC50, conventionally taken in molar units.
